Reference: PMC10800023 (Human Molecular Genetics, 2023)
Values belong to the molecule of their own block, whether it stands above or below them.

Experiments:
MDCK cells = assay: MDCK control cell permeability (not transfected with human P-gp); details: dog, MDCK-MDR1, 60 min, pH 7.4
Description: (§1) To measure transport by P-gp, Madin-Darby canine kidney (MDCK) cells that had been transfected with the human P-gp (MDR1) gene were plated in a Transwell plate and cultured until polarized. MDCK cells that are not transfected with human P-gp were used as a control. Compounds were added to either the apical or the basolateral side of the cells, and transport across the membrane was measured.
(§2) Testing for permeability and MDR1 substrate assessment was done in MDCK cells transfected to overexpress human MDR1 gene that encodes efflux transporter protein (P-gp). […] Briefly, cells were maintained in Dulbecco’s modified Eagle medium (DMEM) with 10% fetal bovine serum and 1% penicillin/streptomycin in a humidified incubator at 37°C with 5% CO2. The study was performed by Absorption Systems (now Pharmaron; Exton, PA). The MDR1-MDCK and MDCK control cell lines were seeded into 12-well plates for 7 days. Integrity of monolayer tight junctions was monitored preincubation by transepithelial electrical resistance (TEER) measurement. […] The samples were withdrawn at t = 0 and 60 min from the receiver and donor compartments. Compound levels were measured by LC/MS–MS. Additionally, post-assay, cell monolayer integrity was checked with Lucifer Yellow permeability measurement. Transport assay low- and high-permeability control compounds were run in parallel for assay validation. Papp values were calculated considering compound concentrations across the monolayer and cell surface area. Efflux ratios were calculated based on Papp B > A over Papp A > B. The difference between the MDR1-MDCK and the MDCK cell efflux ratios was also calculated. […] Compounds were classified by Absorption Systems/Pharmaron as follows: […]

human P-gp (MDR1) = assay: MDR1-MDCK permeability / P-gp efflux assay
Description: as §1, §2

[1] = MDCK control cell permeability (not transfected with human P-gp); details: dog, pH 7.4
Description: as §1, §2

P-gp (MDR1) = assay: MDR1-MDCK permeability / P-gp efflux assay; details: MDCK-MDR1, pH 7.4
Description: as §1, §2

[2] = dog, MDCK-MDR1, 60 min, 1 μM, pH 7.4
[3] = dog, MDCK-MDR1, 60 min, 10 μM, pH 7.4

Apical to Basolateral MDCK (MDCK cells; 1 μM): 12.4 10 ^ −6 cm/s | Basolateral to Apical MDCK (MDCK cells; 1 μM): 15.5 10 ^ −6 cm/s | Apical to Basolateral MDCK (MDCK cells; 10 μM): 6.28 10 ^ −6 cm/s | Basolateral to Apical MDCK (MDCK cells; 10 μM): 8.8 10 ^ −6 cm/s | Papp values (human P-gp (MDR1); MDCK-MDR1): < 3 ×10⁻⁶ cm/s | Apical to Basolateral MDR1-MDCK (human P-gp (MDR1); [2]): 1.08 10 ^ −6 cm/s | Basolateral to Apical MDR1-MDCK (human P-gp (MDR1); [2]): 72.8 10 ^ −6 cm/s | Apical to Basolateral MDR1-MDCK (human P-gp (MDR1); [3]): 1.11 10 ^ −6 cm/s | Basolateral to Apical MDR1-MDCK (human P-gp (MDR1); [3]): 73.6 10 ^ −6 cm/s
SMILES: CC1=N[C@]2(C(=O)CO)[C@@H](C[C@H]3[C@@H]4CCC5=CC(=O)C=C[C@]5(C)[C@H]4[C@@H](O)C[C@@]32C)O1 [21-Des-deflazacort]

Papp A→B at 60 min, 1 μM [1]: 2.83 ×10⁻⁶ cm/s | Papp A→B at 60 min, 10 μM [1]: 2.09 ×10⁻⁶ cm/s | Papp B→A at 60 min, 1 μM [1]: 3.42 ×10⁻⁶ cm/s | Papp B→A at 60 min, 10 μM [1]: 2.86 ×10⁻⁶ cm/s | Papp at 60 min (P-gp (MDR1)): < 3 ×10⁻⁶ cm/s | Apical to Basolateral MDR1-MDCK (human P-gp (MDR1); 10 μM): 0.499 10 ^ −6 cm/s | brain penetration classification (human P-gp (MDR1); 1 and 10 μM, from Papp (A-to-B) and efflux ratio): low | Papp A→B at 60 min, 1 μM (human P-gp (MDR1); dog, MDCK-MDR1, pH 7.4): 0.263 ×10⁻⁶ cm/s | Papp B→A at 60 min, 1 μM (human P-gp (MDR1); dog, MDCK-MDR1, pH 7.4): 43.8 ×10⁻⁶ cm/s | Papp B→A at 60 min, 10 μM (human P-gp (MDR1); dog, MDCK-MDR1, pH 7.4): 51.8 ×10⁻⁶ cm/s
SMILES: C[C@]12C=CC(=O)C=C1CC[C@@H]1[C@@H]2C(=O)C[C@@]2(C)[C@H]1CC[C@]2(O)C(=O)CO [Prednisone]

Papp at 60 min (P-gp (MDR1)): 19.7 to 21.4 ×10⁻⁶ cm/s
SMILES: CC(C)NCC(O)COc1cccc2ccccc12 (centres unmarked) [propranolol]

Papp A→B at 60 min (P-gp (MDR1)): 0.0521 to 0.0558 ×10⁻⁶ cm/s | Papp B→A at 60 min (P-gp (MDR1)): 19.6 to 20.7 ×10⁻⁶ cm/s | efflux ratio at 60 min (P-gp (MDR1)): 352 to 398
SMILES: C[C@H]1O[C@@H](O[C@H]2[C@@H](O)C[C@H](O[C@H]3[C@@H](O)C[C@H](O[C@H]4CC[C@@]5(C)[C@H](CC[C@@H]6[C@@H]5C[C@@H](O)[C@]5(C)[C@@H](C7=CC(=O)OC7)CC[C@]65O)C4)O[C@@H]3C)O[C@@H]2C)C[C@H](O)[C@@H]1O [digoxin]
